Data from ChEMBL document CHEMBL3045443, “Mode for Herbicidal Action of 2-Amino-3-chloro-1,4-naphthoquinone (ACN)” (Biosci Biotechnol Biochem, 1994).

Tests used:
Type in all cases: functional
[1] = test system: Scenedesmus acutus; assay: Herbicidal activity against Scenedesmus acutus assessed as chlorophyll content per ml of packed-cell volume at 10^-4 M heterotrophically for 20 hr by phytotoxicity assay (reference value: 6.52 mg/ml pcv)
[2] = test system: Scenedesmus acutus; assay: Herbicidal activity against Scenedesmus acutus assessed as chlorophyll content per ml of packed-cell volume at 10^-6 M autotrophically for 20 hr by phytotoxicity assay (reference value: 5.32 mg/ml pcv)
[3] = test system: Scenedesmus acutus; assay: Herbicidal activity against Scenedesmus acutus assessed as protoporphyrin-IX content per ml of packed-cell volume at 10^-6 M autotrophically for 20 hr by phytotoxicity assay (reference value: 2 nM/ml pcv)
[4] = test system: Scenedesmus acutus; assay: Herbicidal activity against Scenedesmus acutus assessed as chlorophyll content per ml of packed-cell volume at 10^-5 M autotrophically for 20 hr by phytotoxicity assay (reference value: 5.32 mg/ml pcv)
[5] = test system: Scenedesmus acutus; assay: Herbicidal activity against Scenedesmus acutus assessed as growth measured as packed-cell volume per ml of culture at 10^-4 M heterotrophically for 20 hr by phytotoxicity assay (reference value: 1.5 ul pcv/ml)
[6] = test system: Scenedesmus acutus; assay: Herbicidal activity against Scenedesmus acutus assessed as protoporphyrin-IX content per ml of packed-cell volume at 10^-4 M autotrophically for 20 hr by phytotoxicity assay (reference value: 2 nM/ml pcv)
[7] = test system: Scenedesmus acutus; assay: Herbicidal activity against Scenedesmus acutus assessed as ethane production per ml of packed-cell volume at 10^-4 M autotrophically for 20 hr by phytotoxicity assay (reference value: 0.28 nM/ml pcv)
[8] = test system: Scenedesmus acutus; assay: Herbicidal activity against Scenedesmus acutus assessed as protoporphyrin-IX content per ml of packed-cell volume at 10^-5 M autotrophically for 20 hr by phytotoxicity assay (reference value: 2 nM/ml pcv)
[9] = test system: Scenedesmus acutus; assay: Herbicidal activity against Scenedesmus acutus assessed as growth measured as packed-cell volume per ml of culture at 10^-5 M heterotrophically for 20 hr by phytotoxicity assay (reference value: 1.5 ul pcv/ml)
[10] = test system: Scenedesmus acutus; assay: Herbicidal activity against Scenedesmus acutus assessed as chlorophyll content per ml of packed-cell volume at 10^-4 M autotrophically for 20 hr by phytotoxicity assay (reference value: 5.32 mg/ml pcv)
[11] = test system: Scenedesmus acutus; assay: Herbicidal activity against Scenedesmus acutus assessed as growth measured as packed-cell volume per ml of culture at 10^-6 M heterotrophically for 20 hr by phytotoxicity assay (reference value: 1.5 ul pcv/ml)
[12] = test system: Scenedesmus acutus; assay: Herbicidal activity against Scenedesmus acutus assessed as chlorophyll content per ml of packed-cell volume at 10^-5 M heterotrophically for 20 hr by phytotoxicity assay (reference value: 6.52 mg/ml pcv)
[13] = test system: Scenedesmus acutus; assay: Herbicidal activity against Scenedesmus acutus assessed as packed-cell volume per ml of culture at 10^-4 M autotrophically for 20 hr by phytotoxicity assay (reference value: 6.6 ul pcv/ml)
[14] = test system: Scenedesmus acutus; assay: Herbicidal activity against Scenedesmus acutus assessed as packed-cell volume per ml of culture at 10^-6 M autotrophically for 20 hr by phytotoxicity assay (reference value: 6.6 ul pcv/ml)
[15] = test system: Scenedesmus acutus; assay: Herbicidal activity against Scenedesmus acutus assessed as ethane production per ml of packed-cell volume at 10^-6 M autotrophically for 20 hr by phytotoxicity assay (reference value: 0.28 nM/ml pcv)
[16] = test system: Scenedesmus acutus; assay: Herbicidal activity against Scenedesmus acutus assessed as chlorophyll content per ml of packed-cell volume at 10^-6 M heterotrophically for 20 hr by phytotoxicity assay (reference value: 6.52 mg/ml pcv)
[17] = test system: Scenedesmus acutus; assay: Herbicidal activity against Scenedesmus acutus assessed as packed-cell volume per ml of culture at 10^-5 M autotrophically for 20 hr by phytotoxicity assay (reference value: 6.6 ul pcv/ml)
[18] = test system: Scenedesmus acutus; assay: Herbicidal activity against Scenedesmus acutus assessed as ethane production per ml of packed-cell volume at 10^-5 M autotrophically for 20 hr by phytotoxicity assay (reference value: 0.28 nM/ml pcv)
[19] = test system: Scenedesmus acutus; assay: Herbicidal activity against Scenedesmus acutus assessed as growth measured as packed-cell volume per ml of culture at 10^-7 M heterotrophically for 20 hr by phytotoxicity assay (reference value: 1.5 ul pcv/ml)
[20] = test system: Scenedesmus acutus; assay: Herbicidal activity against Scenedesmus acutus assessed as chlorophyll content per ml of packed-cell volume at 10^-7 M heterotrophically for 20 hr by phytotoxicity assay (reference value: 6.52 mg/ml pcv)

Row | Structure (SMILES) | Activity [1] [mg] | Activity [2] [mg] | Activity [3] [nM] | Activity [4] [mg] | Activity [5] [µL] | Activity [6] [nM] | Activity [7] [nM] | Activity [8] [nM] | Activity [9] [µL] | Activity [10] [mg] | Activity [11] [µL] | Activity [12] [mg] | Activity [13] [µL] | Activity [14] [µL] | Activity [15] [nM] | Activity [16] [mg] | Activity [17] [µL] | Activity [18] [nM] | Activity [19] [µL] | Activity [20] [mg]
1 | NC1=C(Cl)C(=O)c2ccccc2C1=O | 4.76 | 3.67 | 2 | 0.07 | 1.1 | 3.5 | 10.43 | 2 | 1.1 | 0 | 1.3 | 4.76 | 2.1 | 4.2 | 0.23 | 5.22 | 2.6 | 7.51 |  | 
2 | O=C1C2=C(CCCC2)C(=O)N1c1ccc(Cl)cc1 [CHLOROPHTHALIUM] |  | 0.25 | 23.5 | 0.17 |  |  |  |  | 1 |  | 1.1 | 2.85 |  | 2.8 | 8.77 | 4.9 | 2.4 |  | 1.3 | 6.65
3 | CCC(C)c1cc([N+](=O)[O-])cc([N+](=O)[O-])c1O (stereo unspecified) [DINOSEB] |  | 5.5 | 1.5 | 5.91 |  |  |  | 2 |  |  |  |  |  | 6.6 | 0.18 |  | 5.3 | 0.34 |  | 
4 | N#Cc1cc(I)c(O)c(I)c1 [IOXYNIL] |  | 5.71 | 2.5 | 5.82 |  |  |  | 2 |  |  |  |  |  | 6.5 | 0.22 |  | 5.7 | 0.3 |  | 
